For the test, the target named is T1, human amylin receptors (Homo sapiens, UniProt O60896+P30988).
T1 construct: host or cells: CHO-K1/Ga15/AMY3 cells, further stably transfected with a CRE-luciferase plasmid
T1 sequence (P30988 25-474): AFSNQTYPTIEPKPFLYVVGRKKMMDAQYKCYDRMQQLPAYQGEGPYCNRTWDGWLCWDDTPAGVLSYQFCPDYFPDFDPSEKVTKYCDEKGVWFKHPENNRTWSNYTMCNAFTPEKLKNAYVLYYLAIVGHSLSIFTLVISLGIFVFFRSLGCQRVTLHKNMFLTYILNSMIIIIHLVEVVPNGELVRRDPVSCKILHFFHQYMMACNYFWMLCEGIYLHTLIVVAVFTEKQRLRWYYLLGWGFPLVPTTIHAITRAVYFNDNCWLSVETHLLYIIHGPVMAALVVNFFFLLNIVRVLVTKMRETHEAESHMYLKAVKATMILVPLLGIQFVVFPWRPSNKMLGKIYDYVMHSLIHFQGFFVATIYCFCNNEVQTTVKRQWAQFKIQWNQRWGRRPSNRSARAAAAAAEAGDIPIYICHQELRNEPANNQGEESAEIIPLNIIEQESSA
T1 sequence (O60896 24-148 partner): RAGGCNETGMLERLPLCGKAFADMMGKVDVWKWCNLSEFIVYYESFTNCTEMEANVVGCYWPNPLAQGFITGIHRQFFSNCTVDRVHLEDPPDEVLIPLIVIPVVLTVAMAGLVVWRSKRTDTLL
Put plainly: Luciferase assay in stably transfected amylin receptor/CRE-luc CHO cell line. Type of test: cell-based. The conditions noted are these: for Relative activity: EC50 ratio of Cagrilintide to the compound, Cagrilintide 100%; for EC50: amylin receptor/CRE-luc CHO cells, 24 hours incubation, luminescence. From the text: The objective of this assay is to test the potency of derivatives of polypeptides of the present application on human amylin receptors in vitro using a luciferase assay. Using the standard protocol, CHO-K1/Ga15/AMY3 cells (purchased from GenScript, with the calcitonin receptor and the receptor activity modifying peptide (RAMP) constructed already) were transfected with a plasmid containing a luciferase expression cassette driven by multiple copies of cAMP response elements (CREs). The cells were cultured in an F12 medium containing 200 μg/mL Zeocin, 2 μg/mL puromycin, 100 μg/mL hygromycin, and 400 μg/mL G418 to afford a stably transfected amylin receptor/CRE-luc cell line. The lyophilized powder from Example 1 was dissolved in 20 mM phosphate buffer solution with a pH of 7.0, and diluted in a growth medium (F12 culture medium containing 10% FBS) to give a derivative sample with an initial concentration of 10 nM, which was then subjected to a 5-fold serial dilution in the growth medium to obtain seven samples with concentrations between […]. In each well of a white 96-well plate, 50 μL of the tested sample solution was added with a corresponding concentration. The stably transfected amylin receptor/CRE-luc CHO cells were resuspended in the growth medium at a certain density, and 50 μL of the cell suspension was added at a density of about 20000 cells per well to the white 96-well plate containing the tested sample solution. After incubation of 24 hours at 37° C. and 5% CO2, 100 μL of a Luciferase substrate was added to each well, incubated for 3 minutes, and finally was tested for luminescence on SpectraMax L (Molecular Devices) with the software SoftMax Pro 7.0.3 GxP.

Starred links: 1 amine or outer side, 2 acyl side, 3 side chain; linkers in the order of their positions; H or OH if unused. Non-standard residues stand in square brackets, D forms with d. Residues, ends and D or L forms follow the SMILES beside them. *: point of attachment. C20 diacid = O=C(O)CCCCCCCCCCCCCCCCCCC(=O)*; C16 diacid = O=C(O)CCCCCCCCCCCCCCC(=O)*; γGlu = O=C(O)[C@H](CCC(=O)[*:2])N[*:1]; βAsp = O=C(O)[C@H](CC(=O)[*:2])N[*:1]; Hyp = O=C(O)[C@@H]1C[C@@H](O)CN1; Trx = NC[C@H]1CC[C@H](C(=O)O)CC1; AEEA = NCCOCCOCC(=O)O

Regarding `CC[C@H](C)[C@H](NC(=O)[C@H](CC(=O)O)NC(=O)[C@H](CCCNC(=N)N)NC(=O)[C@H](CC(=O)O)NC(=O)[C@H](CCCNC(=N)N)NC(=O)[C@H](CC(=O)O)NC(=O)[C@@H](NC(=O)[C@H](Cc1ccccc1)NC(=O)[C@H](Cc1c[nH]cn1)NC(=O)[C@H](CCCNC(=N)N)NC(=O)[C@H](CC(C)C)NC(=O)[C@H](Cc1ccccc1)NC(=O)[C@H](CC(=O)O)NC(=O)[C@H](C)NC(=O)[C@H](CC(C)C)NC(=O)[C@H](CCCNC(=N)N)NC(=O)[C@H](CCC(N)=O)NC(=O)[C@@H](NC(=O)[C@H](C)NC(=O)[C@H](C)NC(=O)[C@@H](NC(=O)[C@H](CO)NC(=O)[C@H](CC(C)C)NC(=O)[C@H](CCC(N)=O)NC(=O)[C@H](CO)NC(=O)[C@H](C)NC(=O)COCCOCCNC(=O)COCCOCCNC(=O)C[C@H](NC(=O)CCCCCCCCCCCCCCCCCCC(=O)O)C(=O)O)[C@@H](C)O)[C@@H](C)O)[C@@H](C)O)C(=O)N[C@@H](CC(C)C)C(=O)N1CCC[C@H]1C(=O)N1CCC[C@H]1C(=O)N[C@H](C(=O)N[C@@H](CC(N)=O)C(=O)N[C@H](C(=O)NCC(=O)N[C@@H](CO)C(=O)N[C@@H](CC(N)=O)C(=O)N[C@H](C(=O)N1CCC[C@H]1C(N)=O)[C@@H](C)O)C(C)C)[C@@H](C)O` [M18] ({C20 diacid-βAsp-AEEA-AEEA}-ASQLSTAATQRLADFLRHFTDRDRDILPPTNVGSNTP-NH2), the Relative activity was 110%. Take `CC[C@H](C)[C@H](NC(=O)[C@H](CC(=O)O)NC(=O)[C@H](CCCNC(=N)N)NC(=O)[C@H](CC(=O)O)NC(=O)[C@H](CCCNC(=N)N)NC(=O)[C@H](CC(=O)O)NC(=O)[C@@H](NC(=O)[C@H](Cc1ccccc1)NC(=O)[C@H](Cc1c[nH]cn1)NC(=O)[C@H](CCCNC(=N)N)NC(=O)[C@H](CC(C)C)NC(=O)[C@H](Cc1ccccc1)NC(=O)[C@H](CC(=O)O)NC(=O)[C@H](C)NC(=O)[C@H](CC(C)C)NC(=O)[C@H](CCCNC(=N)N)NC(=O)[C@H](CCC(N)=O)NC(=O)[C@@H](NC(=O)[C@H](C)NC(=O)[C@H](C)NC(=O)[C@@H](NC(=O)[C@H](CO)NC(=O)[C@H](CC(C)C)NC(=O)[C@H](CCC(N)=O)NC(=O)[C@H](CO)NC(=O)[C@H](C)NC(=O)COCCOCCNC(=O)COCCOCCNC(=O)[C@H](CC(=O)O)NC(=O)CCCCCCCCCCCCCCCCCCC(=O)O)[C@@H](C)O)[C@@H](C)O)[C@@H](C)O)C(=O)N[C@@H](CC(C)C)C(=O)N1CCC[C@H]1C(=O)N1CCC[C@H]1C(=O)N[C@H](C(=O)N[C@@H](CC(N)=O)C(=O)N[C@H](C(=O)NCC(=O)N[C@@H](CO)C(=O)N[C@@H](CC(N)=O)C(=O)N[C@H](C(=O)N1CCC[C@H]1C(N)=O)[C@@H](C)O)C(C)C)[C@@H](C)O` [M19] ({C20 diacid}-D[AEEA][AEEA]ASQLSTAATQRLADFLRHFTDRDRDILPPTNVGSNTP-NH2): the Relative activity was 80% and the response was half-maximal at 0.036 nM (EC50). On the same counts, the results for `CC[C@H](C)[C@H](NC(=O)[C@@H]1CCCN1C(=O)[C@H](CCCCN)NC(=O)[C@H](CC(C)C)NC(=O)[C@H](CC(N)=O)NC(=O)[C@H](CC(N)=O)NC(=O)[C@H](CO)NC(=O)[C@H](CO)NC(=O)[C@H](Cc1c[nH]cn1)NC(=O)[C@H](CCCNC(=N)N)NC(=O)[C@H](CC(C)C)NC(=O)[C@H](Cc1ccccc1)NC(=O)[C@H](CC(=O)O)NC(=O)[C@H](C)NC(=O)[C@H](CC(C)C)NC(=O)[C@H](CCCNC(=N)N)NC(=O)[C@H](CCC(N)=O)NC(=O)[C@@H](NC(=O)[C@H](C)NC(=O)[C@H](C)NC(=O)[C@@H](NC(=O)[C@H](CO)NC(=O)[C@H](CC(C)C)NC(=O)[C@H](CCC(N)=O)NC(=O)[C@H](CO)NC(=O)[C@H](C)NC(=O)C[C@H](NC(=O)CCCCCCCCCCCCCCCCCCC(=O)O)C(=O)O)[C@@H](C)O)[C@@H](C)O)C(=O)N[C@@H](CC(C)C)C(=O)N1CCC[C@H]1C(=O)N1CCC[C@H]1C(=O)N[C@H](C(=O)N[C@@H](CC(N)=O)C(=O)N[C@H](C(=O)NCC(=O)N[C@@H](CO)C(=O)N[C@@H](CC(N)=O)C(=O)N[C@H](C(=O)N1C[C@H](O)C[C@H]1C(N)=O)[C@@H](C)O)C(C)C)[C@@H](C)O` [M27] ({C20 diacid-βAsp}-ASQLSTAATQRLADFLRHSSNNLKPILPPTNVGSNT[Hyp]-NH2) are 78% and 0.064 nM. On to `CC[C@H](C)[C@H](NC(=O)[C@@H]1CCCN1C(=O)[C@H](CCCCN)NC(=O)[C@H](CC(C)C)NC(=O)[C@H](CC(N)=O)NC(=O)[C@H](CC(N)=O)NC(=O)[C@H](CO)NC(=O)[C@H](CO)NC(=O)[C@H](Cc1c[nH]cn1)NC(=O)[C@H](CCCNC(=N)N)NC(=O)[C@H](CC(C)C)NC(=O)[C@H](Cc1ccccc1)NC(=O)[C@H](CC(=O)O)NC(=O)[C@H](C)NC(=O)[C@H](CC(C)C)NC(=O)[C@H](CCCNC(=N)N)NC(=O)[C@H](CCC(N)=O)NC(=O)[C@@H](NC(=O)[C@H](C)NC(=O)[C@H](C)NC(=O)[C@@H](NC(=O)[C@H](CO)NC(=O)[C@H](CC(C)C)NC(=O)[C@H](CCC(N)=O)NC(=O)[C@H](CO)NC(=O)[C@H](C)NC(=O)COCCOCCNC(=O)COCCOCCNC(=O)[C@H]1CC[C@H](CNC(=O)CCCCCCCCCCCCCCCCCCC(=O)O)CC1)[C@@H](C)O)[C@@H](C)O)C(=O)N[C@@H](CC(C)C)C(=O)N1CCC[C@H]1C(=O)N1CCC[C@H]1C(=O)N[C@H](C(=O)N[C@@H](CC(N)=O)C(=O)N[C@H](C(=O)NCC(=O)N[C@@H](CO)C(=O)N[C@@H](CC(N)=O)C(=O)N[C@H](C(=O)N1C[C@H](O)C[C@H]1C(N)=O)[C@@H](C)O)C(C)C)[C@@H](C)O` [M35] ({C20 diacid-Trx-AEEA-AEEA}-ASQLSTAATQRLADFLRHSSNNLKPILPPTNVGSNT[Hyp]-NH2), for which the Relative activity is recorded as 124%. Take `CC[C@H](C)[C@H](NC(=O)[C@@H]1CCCN1C(=O)[C@H](CCCCN)NC(=O)[C@H](CC(C)C)NC(=O)[C@H](CC(N)=O)NC(=O)[C@H](CC(N)=O)NC(=O)[C@H](CO)NC(=O)[C@H](CO)NC(=O)[C@H](Cc1c[nH]cn1)NC(=O)[C@H](CCCNC(=N)N)NC(=O)[C@H](CC(C)C)NC(=O)[C@H](Cc1ccccc1)NC(=O)[C@H](CC(=O)O)NC(=O)[C@H](C)NC(=O)[C@H](CC(C)C)NC(=O)[C@H](CCCNC(=N)N)NC(=O)[C@H](CCC(N)=O)NC(=O)[C@@H](NC(=O)[C@H](C)NC(=O)[C@H](C)NC(=O)[C@@H](NC(=O)[C@H](CO)NC(=O)[C@H](CC(C)C)NC(=O)[C@H](CCC(N)=O)NC(=O)[C@H](CO)NC(=O)[C@H](C)NC(=O)CC[C@H](NC(=O)CCCCCCCCCCCCCCC(=O)O)C(=O)O)[C@@H](C)O)[C@@H](C)O)C(=O)N[C@@H](CC(C)C)C(=O)N1CCC[C@H]1C(=O)N1CCC[C@H]1C(=O)N[C@H](C(=O)N[C@@H](CC(N)=O)C(=O)N[C@H](C(=O)NCC(=O)N[C@@H](CO)C(=O)N[C@@H](CC(N)=O)C(=O)N[C@H](C(=O)N1C[C@H](O)C[C@H]1C(N)=O)[C@@H](C)O)C(C)C)[C@@H](C)O` [M38] ({C16 diacid-γGlu}-ASQLSTAATQRLADFLRHSSNNLKPILPPTNVGSNT[Hyp]-NH2): the Relative activity is 181% and the EC50 (commonly the midpoint of the concentration-response curve) came to 0.03 nM.

The record behind these values is patent US20260265329A1, “POLYPEPTIDE AND DERIVATIVE THEREOF, COMPOSITION, AND USE THEREOF” (HANGZHOU SCIWIND BIOSCIENCES CO., LTD., priority 2023, published 2026).
